Measured values: US9777297B2 (EASEL BIOTECHNOLOGIES, LLC, priority 2011, dated 2017)

Test system: engineered E. coli
Assay: n-butyraldehyde toxicity incubation test in sealed tube, colony forming units versus time
Assay type: cell-based
Procedure: In all cases, including the case in which no addition is made, the number of colony forming units tends to a minimum value (e.g., cells no longer viable) after about 24 hours.

## CCCC=O [n-butyraldehyde]
1.0 g/L n-butyraldehyde added, a little after 5 hours
  change in colony forming units per μL: net increase
1.2 g/L and above n-butyraldehyde added, at 4.5 hours
  change in colony forming units per μL: net decrease
